Source: patent US20210275698A1, “COMPOUNDS AND COMPOSITIONS FOR TARGETING MACROPHAGES AND OTHER MANNOSE-BINDING C-TYPE LECTIN RECEPTOR HIGH EXPRESSING CELLS AND METHODS OF TREATING AND DIAGNOSIS USING SAME” (priority 2015, published 2021)

Legend:
[1] = system: luciferase-expressing M. tuberculosis H37Rv strain (M.tb-Lux); experiment: Anti-bacterial activity against M.tb in human macrophages (luminescence); format: cell-based; settings: drug equivalency; up to 72 h
[2] = system: monocyte-derived CD206+ macrophages; experiment: CD206 targeting assay: uptake, killing and apoptosis of monocyte-derived CD206+ macrophages; format: cell-based

| Compound | lowest concentration at which activity against M.tb was maintained [1] | killing / toxicity to CD206 expressing macrophages (Annexin levels) ([2]; FIG. 17) | apoptosis induction (Annexin-V expression on MOs and in tumor tissue) ([2]; overnight) |
| --- | --- | --- | --- |
| NNC(=O)c1ccncc1 [INH, isoniazid] | 0.0312 µM | – | – |
| COc1cccc2c1C(=O)c1c(O)c3c(c(O)c1C2=O)C[C@@](O)(C(=O)CO)C[C@@H]3O[C@H]1C[C@H](N)[C@H](O)[C@H](C)O1 [Docorubicin, doxorubicin] | – | no toxicity | less effect |
